Data reported in patent publication US10722484B2, “Methods of cancer treatment” (K-Gen, Inc., priority 2016, dated 2020).
Where two headings read alike, the source gives them in different places.

What was measured:
[1] = tested on: A549; test: Proliferation assay (CellTiter Glo); type: cell-based; details: 96 hours; for Top Inhibition %: % of top inhibition; for EC50: Homo sapiens
Protocol: (§1) The dose range for most compounds was 4.6 nM-30 μM. The dose ranges for some compounds were adjusted downward to 0.46 nM-3 μM or 0.08 nM-0.5 μM or 0.03 nM-0.2 μM. […] The results are shown in Tables 3-6 for pancreatic cancer, lung cancer, colon/gastric cancer, and leukemia.

[2] = tested on: AGS; test: Proliferation assay (CellTiter Glo); type: cell-based; details: 96 hours; for Top Inhibition %: % of top inhibition; for EC50: Homo sapiens
Protocol: as §1

[3] = tested on: AsPC-1; test: Proliferation assay (CellTiter Glo); type: cell-based; details: 96 hours; for Top Inhibition %: % of top inhibition; for EC50: Homo sapiens, ASPC1
Protocol: as §1

[4] = tested on: CCRF-CEM; test: Proliferation assay (CellTiter Glo); type: cell-based; details: 96 hours; for Top Inhibition %: % of top inhibition; for EC50: Homo sapiens
Protocol: as §1

[5] = tested on: Capan-1; test: Proliferation assay (CellTiter Glo); type: cell-based; details: 96 hours; for Top Inhibition %: % of top inhibition; for EC50: Homo sapiens
Protocol: as §1

[6] = tested on: H358; test: Proliferation assay (CellTiter Glo); type: cell-based; details: HE58, 96 hours; for Top Inhibition %: % of top inhibition; for EC50: Homo sapiens, NCI-H358
Protocol: as §1

[7] = tested on: H441; test: Proliferation assay (CellTiter Glo); type: cell-based; details: 96 hours; for Top Inhibition %: % of top inhibition; for EC50: Homo sapiens, NCI-H441
Protocol: as §1

[8] = tested on: H727; test: Proliferation assay (CellTiter Glo); type: cell-based; details: 96 hours; for Top Inhibition %: % of top inhibition; for EC50: Homo sapiens, NCI-H727
Protocol: as §1

[9] = tested on: HCT116; test: Proliferation assay (CellTiter Glo); type: cell-based; details: 96 hours; for Top Inhibition %: % of top inhibition; for EC50: Homo sapiens, HCT-116
Protocol: as §1

[10] = tested on: KP-4; test: Proliferation assay (CellTiter Glo); type: cell-based; details: 96 hours; for EC50: Homo sapiens; for Top Inhibition %: % of top inhibition
Protocol: as §1

[11] = tested on: LS180; test: Proliferation assay (CellTiter Glo); type: cell-based; details: 96 hours; for EC50: Homo sapiens, LS180 (K-RAS: G12D), absolute EC50, read-out: Ab EC50; for Top Inhibition %: LS180, % of top inhibition
Protocol: as §1

[12] = tested on: Pan2.03; test: Proliferation assay (CellTiter Glo); type: cell-based; details: 96 hours; for Top Inhibition %: % of top inhibition
Protocol: as §1

[13] = tested on: Pan2.13; test: Proliferation assay (CellTiter Glo); type: cell-based; details: 96 hours; for Top Inhibition %: % of top inhibition
Protocol: as §1

[14] = tested on: SW620; test: Proliferation assay (CellTiter Glo); type: cell-based; details: 96 hours; for EC50: Homo sapiens, SW-620, SW620 (K-RAS: G12V), absolute EC50, read-out: Ab EC50; for Top Inhibition %: SW620, % of top inhibition
Protocol: as §1

[15] = tested on: MiaPaCa-2; test: Proliferation assay (CellTiter Glo); type: cell-based; details: 96 hours; for EC50: Homo sapiens, MIA PaCa-2; for Top Inhibition %: % of top inhibition
[16] = tested on: HL60; test: Proliferation assay (CellTiter Glo); type: cell-based, human; details: 96 hours; for Top Inhibition %: % of top inhibition; for EC50: Homo sapiens, HL-60
Protocol: as §1

[17] = tested on: THP1; test: Proliferation assay (CellTiter Glo); type: cell-based, human; details: 96 hours; for EC50: Homo sapiens, THP-1; for Top Inhibition %: % of top inhibition
Protocol: as §1

[18] = tested on: leukemia inhibitory factor (LIF); test: Western blot analysis of PKC signaling pathway elements in A549 cells; type: cell-based; details: for protein levels of the leukemia inhibitory factor (LIF): Western blot, concentrations of Table 8 (K101A 0.1, 0.5, […]; K101E […]; K102 0.1, 0.5 μM; K103 0.01 μM; Ref1 1 μM; Ref2 0.01 μM)
Protocol: (§2) Cancer cells (2-8 million cells) were seeded in 10 cm dishes and grown overnight. For A549 lung cancer cell line, about 3 million cells were seeded. Cells were then treated with different drugs at concentrations described in Table 8 for a period of time up to 48 hours. Cells were lysed in 0.3-0.5 mL of RIPA buffer (Sigma) supplemented with protease inhibitors (Roche) and phosphatase inhibitors (Sigma). Lysates were assayed for protein concentration using BCA kit (Pierce). Normalized amount of lysates (20-30 μg protein/lane) were run on 4-12% NuPage gel (Life Technologies) and the proteins were transferred to the PVDF or nitrocellulose membrane using iBlot® Transfer Stack (Life Technologies). The membranes were probed with primary antibodies shown in Table 9 at 4° C. overnight after blocking with 1×TBST containing 5% non-fat milk. Antibodies from other vendors could also be used in Western blot analysis. After washing 5 times with 1×TBS containing 0.1% Tween20, the membranes were probed with 2nd antibodies Anti-mouse IgG Dylight 800 conjugate or Anti-rabbit IgG DyLight 680 conjugate (1:10000; Cell signaling or similar IR 2nd antibodies from different vendors) at room temperature for one hour. After washing 5 times, the membranes were scanned using Odyssey® Imaging System (Licor Biosciences).

[19] = tested on: phospho-PKC (pan); test: as above; type: cell-based; details: for phospho-PKC (pan) levels: 48 hours, K103, K102 at 0.5 μM, K101A at […]
Protocol: as §2

[20] = A549 (K-RAS: G12S), absolute EC50, read-out: Ab EC50
[21] = A549, relative EC50, read-out: Re EC50
[22] = AGS (gastric, K-RAS: G12D), absolute EC50, read-out: Ab EC50
[23] = AGS, relative EC50, read-out: Re EC50
[24] = AsPC-1 (K-RAS: G12D), absolute EC50, read-out: Ab EC50
[25] = AsPC-1, relative EC50, read-out: Re EC50
[26] = CCRF-CEM (K-RAS: G12D), absolute EC50, read-out: Ab EC50
[27] = CCRF-CEM, relative EC50, read-out: Re EC50
[28] = Capan-1 (K-RAS: G12V), absolute EC50, read-out: Ab EC50
[29] = Capan-1, relative EC50, read-out: Re EC50
[30] = absolute EC50, read-out: Ab EC50
[31] = relative EC50, read-out: Re EC50
[32] = H441 (K-RAS: G12V), absolute EC50, read-out: Ab EC50
[33] = H441, relative EC50, read-out: Re EC50
[34] = H727 (K-RAS: G12V), absolute EC50, read-out: Ab EC50
[35] = H727, relative EC50, read-out: Re EC50
[36] = HCT116 (K-RAS: G13D), absolute EC50, read-out: Ab EC50
[37] = KP-4 (K-RAS: G12C), absolute EC50, read-out: Ab EC50
[38] = KP-4, relative EC50, read-out: Re EC50
[39] = Pan2.03 (K-RAS: G12D), absolute EC50, read-out: Ab EC50
[40] = Pan2.03, relative EC50, read-out: Re EC50
[41] = Pan2.13 (K-RAS: Q61H), absolute EC50, read-out: Ab EC50
[42] = Pan2.13, relative EC50, read-out: Re EC50
[43] = MiaPaCa-2 (K-RAS: G12C), absolute EC50, read-out: Ab EC50
[44] = MiaPaCa-2, relative EC50, read-out: Re EC50
[45] = HL60 (N-RAS: Q61L), absolute EC50, read-out: Ab EC50
[46] = HL60, relative EC50, read-out: Re EC50
[47] = THP1 (N-RAS: G12D), absolute EC50, read-out: Ab EC50
[48] = THP1, relative EC50, read-out: Re EC50

## CC(=O)O[C@@]12C[C@@H](C)[C@@]3(O)[C@@H](C=C(CO)C[C@]4(O)C(=O)C(C)=C[C@@H]34)[C@@H]1C2(C)C [Compound K101A, 12-deoxyphorbol 13-acetate]
[1]; A549
  Top Inhibition %: 76.0%
[1]; [20]
  EC50: 490 nM
[1]; [21]
  EC50: 270 nM
[2]; AGS
  Top Inhibition %: 21.7%
[2]; [22]
  EC50: > 30000 nM
[2]; [23]
  EC50: 490 nM
[3]; AsPC-1
  Top Inhibition %: 32.4%
[3]; [24]
  EC50: > 30000 nM
[3]; [25]
  EC50: 270 nM
[4]; CCRF-CEM
  Top Inhibition %: 35.9%
[4]; [26]
  EC50: > 30000 nM
[4]; [27]
  EC50: 51 nM
[5]; Capan-1
  Top Inhibition %: 37.1%
[5]; [28]
  EC50: > 30000 nM
[5]; [29]
  EC50: 310 nM
[6]
  Top Inhibition %: 56.4%
[6]; [30]
  EC50: 4900 nM
[6]; [31]
  EC50: 160 nM
[7]; H441
  Top Inhibition %: 42.1%
[7]; [32]
  EC50: > 30000 nM
[7]; [33]
  EC50: 320 nM
[8]; H727
  Top Inhibition %: 48.3%
[8]; [34]
  EC50: > 30000 nM
[8]; [35]
  EC50: 190 nM
[9]; HCT116
  Top Inhibition %: 17.4%
[9]; [36]
  EC50: > 30000 nM
[10]; [37]
  EC50: 400 nM
[10]; [38]
  EC50: 190 nM
[10]; KP-4
  Top Inhibition %: 63.3%
[11]
  EC50: > 30000 nM
  Top Inhibition %: 4.4%
[12]; [39]
  EC50: > 30000 nM
[12]; Pan2.03
  Top Inhibition %: 27.0%
[12]; [40]
  EC50: 120 nM
[13]; [41]
  EC50: > 30000 nM
[13]; Pan2.13
  Top Inhibition %: 43.4%
[13]; [42]
  EC50: 17 nM
[14]
  EC50: > 30000 nM
  Top Inhibition %: 0.0%
[15]; [43]
  EC50: 300 nM
[15]; [44]
  EC50: 180 nM
[15]; MiaPaCa-2
  Top Inhibition %: 74.4%
[16]; HL60
  Top Inhibition %: 61.3%
[16]; [45]
  EC50: 470 nM
[16]; [46]
  EC50: 400 nM
[17]; [47]
  EC50: 870 nM
[17]; [48]
  EC50: 300 nM
[17]; THP1
  Top Inhibition %: 51.8%
[18]; 0.5 μM
  LIF protein level: lowered
[18]
  protein levels of the leukemia inhibitory factor (LIF): dose-dependent reduction
[19]; 0.5 μM
  phospho-PKC (pan) level: without affecting
[19]
  phospho-PKC (pan) levels: reduction

## C/C=C(/C)C(=O)O[C@H]1C(C)=C[C@]23C(=O)[C@@H](C=C(CO)[C@@H](O)[C@]12O)[C@H]1[C@@H](C[C@H]3C)C1(C)C [Compound K102, ingenol-3-angelate]
[1]; A549
  Top Inhibition %: 80.8%
[1]; [20]
  EC50: 17 nM
[1]; [21]
  EC50: 17 nM
[2]; AGS
  Top Inhibition %: 42.9%
[2]; [22]
  EC50: > 3000 nM
[2]; [23]
  EC50: 12 nM
[3]; AsPC-1
  Top Inhibition %: 37.8%
[3]; [24]
  EC50: > 3000 nM
[3]; [25]
  EC50: 14 nM
[4]; CCRF-CEM
  Top Inhibition %: 30.3%
[4]; [26]
  EC50: > 3000 nM
[4]; [27]
  EC50: 0.9 nM
[5]; Capan-1
  Top Inhibition %: 46.9%
[5]; [28]
  EC50: > 30000 nM
[5]; [29]
  EC50: 13 nM
[6]
  Top Inhibition %: 57.5%
[6]; [30]
  EC50: 97 nM
[6]; [31]
  EC50: 4.5 nM
[7]; H441
  Top Inhibition %: 50.6%
[7]; [32]
  EC50: 1010 nM
[7]; [33]
  EC50: 2.4 nM
[8]; H727
  Top Inhibition %: 61.0%
[8]; [34]
  EC50: 22 nM
[8]; [35]
  EC50: 4.3 nM
[9]; HCT116
  Top Inhibition %: 23.2%
[9]; [36]
  EC50: > 3000 nM
[9]; HCT116, relative EC50, read-out: Re EC50
  EC50: 21 nM
[10]; [37]
  EC50: 15 nM
[10]; [38]
  EC50: 15 nM
[10]; KP-4
  Top Inhibition %: 62.2%
[11]
  EC50: > 30000 nM
  Top Inhibition %: 9.3%
[12]; [39]
  EC50: > 3000 nM
[12]; Pan2.03
  Top Inhibition %: 36.9%
[12]; [40]
  EC50: 3.3 nM
[13]; [41]
  EC50: 3.9 nM
[13]; Pan2.13
  Top Inhibition %: 51.7%
[13]; [42]
  EC50: 1.2 nM
[14]
  EC50: > 30000 nM
  Top Inhibition %: 0.0%
[15]; [43]
  EC50: 13 nM
[15]; [44]
  EC50: 9 nM
[15]; MiaPaCa-2
  Top Inhibition %: 79.3%
[16]; HL60
  Top Inhibition %: 60.1%
[16]; [45]
  EC50: 15 nM
[16]; [46]
  EC50: 14 nM
[17]; [47]
  EC50: 15 nM
[17]; [48]
  EC50: 12 nM
[17]; THP1
  Top Inhibition %: 52.4%
[18]
  protein levels of the leukemia inhibitory factor (LIF): did not affect
[19]
  phospho-PKC (pan) levels: reduction
